Data from US4272437A, “Antibacterial agents, and 4-thio azetidinone intermediates” (priority 1979, dated 1981).
Values after ≈ are worked out from the molar mass of the structure shown. Where two headings read alike, the source gives them in different places.

Legend:
[1] = in vitro and in vivo, literature; cited from earlier work
β-lactamases = conditions: literature; cited from earlier work
[2] = tested on: Gram-negative and Gram-positive organisms; conditions: literature; cited from earlier work
Ps. aeruginosa A-21213 = experiment: MIC, tube dilution, Pseudomonas aeruginosa A21213; format: cell-based; conditions: Pseudomonas aeruginosa A21213; overnight 37° C.; read-out: Minimum Inhibitory Concentration (M.I.C.)
Excerpt: (§1) Representative compounds of the present invention were subjected to in vitro antibiotic screening against a variety of microorganisms.

[3] = tested on: Klebsiella species A20468; experiment: MIC, tube dilution, Klebsiella species A20468; format: cell-based; conditions: Klebsiella species (K. pneumoniae) A20468; overnight 37° C.; read-out: Minimum Inhibitory Concentration (M.I.C.)
Excerpt: as §1

S. aureus A9537 = experiment: In vivo protection of mice, lethal infection with S. aureus A9537; conditions: IM, 2 treatments; for ED50: Staphylococcus aureus, A9537, im, read-out: PD50
Experimental: (§2) Representative compounds of the present invention were also tested in vivo in mice and their PD50 (dose of compound in mg/kg required to protect 50% of the treated mice against an otherwise lethal infection of a micro-organism) values determined with respect to the test organisms shown below.

K. pneumoniae A15130 = experiment: In vivo protection of mice, lethal infection with K. pneumoniae A15130; conditions: Klebsiella pneumoniae, IM, 2 treatments, 1.2 × 10^3 organisms, read-out: PD50
Experimental: as §2

S. pyogenes A9604 = experiment: In vivo protection of mice, lethal infection with S. pyogenes A9604; conditions: Streptococcus pyogenes, A9604, im, 2 treatments, read-out: PD50
Experimental: as §2

Str. faecalis A-20688 = experiment: MIC, tube dilution, Streptococcus faecalis A20688; format: cell-based; conditions: Enterococcus faecalis, A20688, Str. faecalis A20688; overnight 37° C.; read-out: Minimum Inhibitory Concentration (M.I.C.)
Excerpt: as §1

S. pneumoniae A9585 = experiment: In vivo protection of mice, lethal infection with S. pneumoniae A9585; conditions: Streptococcus pneumoniae, A9585, im, 2 treatments, read-out: PD50
Experimental: as §2

E. coli A-20341-1 = experiment: MIC, tube dilution, Escherichia coli A20341-1; format: cell-based; conditions: Escherichia coli, A203411, E. coli A20341-1; overnight 37° C.; read-out: Minimum Inhibitory Concentration (M.I.C.)
Excerpt: as §1

S. aureus A9606 = experiment: In vivo protection of mice, lethal infection with S. aureus A9606; conditions: Staphylococcus aureus, IM, 2 treatments, 8 × 10^8 organisms, read-out: PD50
Experimental: as §2

[4] = tested on: Staph. aureus (Pen-Res) A-9606; experiment: MIC, tube dilution, Staphylococcus aureus A9606 (Pen-Res); format: cell-based; conditions: Staphylococcus aureus, Staph. aureus A9606 (Pen-Res); overnight 37° C.; read-out: Minimum Inhibitory Concentration (M.I.C.)
Excerpt: as §1

[5] = tested on: Providencia stuartii A21205; experiment: MIC, tube dilution, Providencia stuartii (Pr. rettgeri) A21205; format: cell-based; conditions: Providencia stuartii, A21205, Providencia stuartii (Pr. rettgeri) A21205; overnight 37° C.; read-out: Minimum Inhibitory Concentration (M.I.C.)
Excerpt: as §1

| Structure (SMILES) | enhancement of activity of penicillins and cephalosporins [1] | β-lactamase inhibition (β-lactamases) | antibacterial activity [2] | MIC (Ps. aeruginosa A-21213) [µg/mL] | MIC [3] [µg/mL] | PD50 (S. aureus A9537; 1.1 × 10^6 organisms, listed as Prep. 2,3) [mg/kg/treatment] | ED50 (S. aureus A9537; 1.1 × 10^6 organisms) [mg/kg] | ED50 (S. aureus A9537; 7.8 × 10^5 organisms) [mg/kg] | ED50 (K. pneumoniae A15130) [mg/kg] | ED50 (S. pyogenes A9604; 1.2 × 10^3 organisms) [mg/kg] | ED50 (S. pyogenes A9604; 8 × 10^3 organisms) [mg/kg] | MIC (Str. faecalis A-20688) [µg/mL] | ED50 (S. pneumoniae A9585; 3 × 10^4 organisms) [mg/kg] | ED50 (S. pneumoniae A9585; 3.4 × 10^4 organisms) [mg/kg] | MIC (E. coli A-20341-1) [µg/mL] | ED50 (S. aureus A9606) [mg/kg] | MIC [4] [µg/mL] | MIC [5] [µg/mL] |
| --- | --- | --- | --- | --- | --- | --- | --- | --- | --- | --- | --- | --- | --- | --- | --- | --- | --- | --- |
| O=C(O)[C@H]1/C(=C/CO)O[C@@H]2CC(=O)N21 [clavulanic acid] | enhances the in vitro and in vivo activity of some penicillins and cephalosporins | inhibits the action of certain β-lactamases | low order of antibacterial activity | – | – | – | – | – | – | – | – | – | – | – | – | – | – | – |
| CC1=C(C(=O)O)N2C(=O)C[C@H]2S1 [Preparation 2,3, 2-Methylpenem-3-carboxylic Acid] | – | – | – | > 125 | > 125 | 22 | 13 | 13 | > 400 | > 50 | > 12.5 | 32 (≈ 173 µM) | > 12.5 | > 50 | 16 (≈ 86.4 µM) | > 50 | 1 (≈ 5.4 µM) | 4 (≈ 21.6 µM) |
